Laboratory results: patent US11623008B2, “Excipient compositions for mucoadhesive pharmaceutical compositions including a synergistic combination of amylopectin, pullulan, hyaluronic acid, and xyloglucan” (Professional Compounding Centers of America (PCCA), priority 2014, dated 2023)

Experiments:
[1] = system: EpiOral tissue model (ORL-200), human oral mucosa; assay: Safety and toxicological profile on human oral mucosa (MTT cell viability); type: cell-based; conditions: excipient composition at 50%, Triton X-100 at 1%; for mean percent viability: mean of two experiments
Protocol: This study was conducted to evaluate the safety and toxicological profile of disclosed excipient compositions in comparison to Triton X-100 (positive control) and distilled water (negative control), using a 3D model of the human oral mucosa. Triton X-100 is a non-ionic surfactant, which is not approved for oral use.
Methodology: The materials used in this study include EpiOral™ tissue samples, disclosed excipient composition (Lot: 6481454) at 50% (diluted in distilled water), and Triton X-100 at 1%. The EpiOral™ tissue model (ORL-200) comprises of normal human-derived non-keratinized oral epithelial cells, cultured and differentiated to resemble the native buccal tissue of the human oral mucosa. Following tissue preparation, 40 μL of disclosed excipient composition at 50% and Triton X-100 at 1% were applied onto separate EpiOral tissue samples and left to incubate at 37° C. Incubation intervals were 1, 4.5, and 20 hours. Application of distilled water on an EpiOral tissue served as the negative control. After the allotted exposure time, each tissue was rinsed twice with phosphate buffer saline (PBS) and excess liquid was removed. Afterwards, 300 μL of 3-[4,5-dimethylthiazol-2yl]-2,5-diphenyltetrazolium bromide (MTT) solution was added to the EpiOral tissues and left to incubate for 3 hours. MTT was used as an indicator of cell viability. Succinate dehydrogenase enzymes within the mitochondria of viable cells have the ability to reduce soluble yellow tetrazonium salt of MTT to an insoluble purple formazan derivative. After 3 hours of exposure to MTT, the tissues were immersed in 2 mL of extraction solution, sealed in a plastic bag, and stored at room temperature overnight. The excess liquid was then decanted and the remaining extractant solution was agitated. A 200 μL aliquot of each extract was evaluated using a Molecular Device SpectraMax® M5 Microplate Reader. This device quantifies the absorbance potential of the samples at 570 nm, a wavelength absorbed by reduced MTT. This experiment was repeated two months following initial testing using identical methodology and the Electrolyte Saliva Gel (PCCA Formula #11150), which consists of sodium chloride, potassium chloride, calcium chloride, and a flavor extract in disclosed excipient composition (Lot: 6481454) at 50% (diluted in distilled water).
Results and Discussion: Toxicological profiles for disclosed excipient composition and the positive control, Triton X-100 at 1%, were compared by examining absorbancy potentials of the extracts collected from both experiments. […] Mean percent cell viabilities were calculated for the two experiments and are illustrated in FIG. 3. […]

[2] = system: EpiVaginal tissue model, human vaginal mucosa; assay: Safety and toxicological profile on human vaginal mucosa (MTT cell viability); type: cell-based; conditions: Triton X-100 at 1%
Protocol: This study was conducted to evaluate the safety and toxicological profile of disclosed excipient compositions in comparison to Triton X-100 (positive control) by employing the EpiVaginal™ tissue model, developed by the MatTek Corporation (Ashland, Mass., USA), which is a highly differentiated 3D model of the human vaginal mucosa. The EpiVaginal™ multi-layered tissue model comprises normal, human-derived vaginal-ectocervical (VEC) epithelial and dendritic cells (DC), cultured and differentiated to resemble the growth and morphological characteristics of the human vaginal mucosa. Triton X-100 is a non-ionic surfactant that can be used as a solubilizer, stabilizer, and emulsifier.
Methodology: Following tissue preparation, within a 6-well plate, 100 μL of disclosed excipient composition at 100% and Triton X-100 at 1% were applied onto separate EpiVaginal tissue samples and left to incubate at 37° C. for 45 minutes to 20 hours. Following incubation, tissues were rinsed twice with Phosphate Buffer Saline (PBS) and excess liquid was removed. A 300 μL of 3-[4,5-dimethylthiazol-2yl]-2,5-diphenyltetrazolium bromide (MTT) solution was then added to the tissues and left to incubate for 3 hours. MTT served as an indicator of cell viability. Succinate dehydrogenase enzymes within the mitochondria of viable cells have the ability to reduce soluble yellow tetrazonium salt of MTT to an insoluble purple formazan derivative. Tissues were then immersed in 2 mL of extraction solution and sealed in a plastic bag to soak overnight at room temperature. Excess liquid was decanted the following day, the remaining extractant solution was agitated, and 200 μL aliquot of each extract was evaluated with a Molecular Device SpectraMax® M5 Microplate Reader. This device quantifies the absorbance potential of the samples at 570 nm, a wavelength absorbed by the formazan derivative.

Substance: Triton X-100
- mean percent viability ([1]; 1 hour exposure): 117%
- mean percent viability ([1]; 4.5 hours exposure): 30%
- mean percent viability ([1]; 20 hours exposure): 6%
- ET50, the time at which percent viability would be 50% ([1]; estimated from semi-log plot): 3.2 h
- percent cell viability ([2]; 45 minutes exposure): 97%
- percent cell viability ([2]; 2 hours exposure): 26%
- ET50, time when percent cell viability is reduced to 50% ([2]; estimated from semi-log plot): 86.4 min
